In patent US9266904B2, “6-bridged heteroaryldihydropyrimidines for the treatment and prophylaxis of hepatitis B virus infection” (priority 2013, dated 2016):
pEC50: −log10 of the molar value. Converted amounts (≈) assume the structure as drawn.

Key:
HBV = HBV infected transgenic mouse or humanized mouse models; cited from earlier work
[1] = test system: HBV replication in HepG2.2.15 cells; assay: Anti-HBV activity in vitro in HepG2.2.15 cells (extracellular HBV DNA by qPCR); type: cell-based; conditions: Hepatitis B virus, HepG2.2.15, Anti-HBV activity in HepG2.2.15 cells; read-out: EC50
How it was run: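 EC50 is derived from qPCR of extracellular viral DNA in culture supernatant after 5-day compound exposure. Cells (HepG2.2.15, stably carrying the HBV genome) were plated and incubated overnight at 37 °C before half-log dilution series were added at 0.5% final DMSO.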

[2] = Cytotoxicity (CCK-8 cell viability) and selectivity index; type: cell-based, human; conditions: human, HepDE19 cells; cytotoxicity, concentration resulting in death of 50% of host cells
How it was run: (§1)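 HepDE19 cells (5×10^3/well) were treated with compounds as for the EC50 runs and, after 5 days, given CCK-8 for 2 h at 37° C. Absorbance was read at OD450 and OD630, and CC50 was taken as the concentration killing 50% of host cells.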

HepDE19 cells = assay: as above; type: cell-based, human; conditions: CC50 value/EC50 value
How it was run: as §1

[3] = Human microsomal clearance assay; type: in vitro ADME; conditions: human, 1 μM, pH 7.4
How it was run: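 Liver microsomes (0.5 mg/mL protein) were incubated with 1 μM compound at 37 °C, pH 7.4 phosphate, with an NADPH-regenerating system. Samples at 0-30 min were quenched and measured by LC-MS/MS for parent loss. No-NADPH controls were included.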

[4] = Lyophilisation solubility assay (Lysa); type: physicochemical; conditions: pH 6.5, aqueous buffer, thermodynamic from solid
How it was run: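 DMSO was evaporated from 10 mM stocks, and residues were taken up in 0.05 M phosphate buffer pH 6.5, stirred 1 h, shaken 2 h and left overnight. Filtrates were quantified by UV or HPLC-UV against a four-point calibration, in duplicate. Values are in μg/ml, with a lower-bound value when >80% dissolved.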

CYP3A4 = conditions: human, 24 h
Procedure: Human cryopreserved hepatocytes (Life Technologies, Carlsbad, USA) were thawed and cultured in collagen I coated 96-well plates with a density of 52,000 cells/well. After attachment, medium was changed and cells were pre-cultured overnight in hepatocyte maintenance medium (HMM; Lonza, Switzerland).
Test compounds were dosed to the cells next morning at an indicated concentration (up to 10 μM) in HMM culture media containing gentamycin and a constant 0.1% DMSO. Similarly, dilutions of the positive inducer compounds omeprazole (prototypical inducer of human CYP1A2; final concentrations: 1 and 10 μM), phenobarbital (prototypical inducer of human CYP2B6; final concentrations: 100 and 1000 μM) and rifampicin (prototypical inducer of human CYP3A4; final concentrations: 1 and 10 μM) were prepared from 1000 fold DMSO stock solutions in HMM containing gentamycin. Medium change was then performed and cells were exposed for 24 hours to test compounds, positive inducer compounds, or vehicle (0.1% DMSO), respectively.
At the end of the compound exposure period, medium was removed and cells lysed using 100 μL/well MagNA Pure LC RNA isolation tissue lysis buffer (Roche Diagnostics AG, Rotkreuz, Switzerland). Plates were then sealed and frozen at −80° C. until further workup.
mRNA isolation was performed using the MagNA Pure 96 system (Roche Diagnostics AG, Rotkreuz, Switzerland) and the respective cellular RNA large volume kit (Roche Diagnostics AG, Rotkreuz, Switzerland) from thawed samples diluted 1:1 with PBS. The volume of the cell lysis and an elution volume of 100 μL were used. 20 μL of the resulting mRNA suspension was then used for reverse transcription using 20 μL of the transcript or first stand cDNA synthesis kit (Roche prime Supply, Mannheim, Germany). The resulting cDNA was diluted with 40 μL of H2O before using for qRT-PCR. qRT-PCR was performed by using the forward and the reverse primer, the corresponding UPL (all from Microsynth, Balgach, Switzerland) and the Taqman Fast advanced master mix (Applied Biosystems), on an ABI 7900 machine (Applied Biosystems).
qRT-PCR Ct-values for the respective P450s were put into relation to the Ct-value of RN18S1 (microsynth, Balgach, Switzerland) of the same sample. Doing so, a respective Δct-value was calculated. Using the average of all Δct-values for the vehicle control samples, a ΔΔct-value was calculated for each sample (ΔΔct-value(sample)=Δct-value(sample)−average of Δct-value of all vehicle controls). The fold induction of the respective sample was calculated as 2^(−ΔΔct). The individual fold induction values were then averaged per treatment condition (usually n=3 biological replicates).
Relative induction values to the respective positive inducer compound condition (10 μM omeprazole for CYP1A2; 1000 μM Phenobarbital for CYP2B6; 10 μM rifampicin for CYP3A4) were then calculated from the fold induction values as follows: Relative induction(%)=100×(T−V)/(P−V)
T: fold induction of test compound condition
P: fold induction of positive inducer compound
V: fold induction of vehicle controls

Compound	in vivo efficacy (HBV DNA reduction) (HBV)	pEC50 [1]	CC50 at 5 days [2]	Selectivity index (CC50/EC50) (HepDE19 cells)	CLh [3]	solubility thermodynamic [4]	% of Positive control (10 μM Rifampicin) (CYP3A4)
COC(=O)C1=C(C)NC(c2ncc(F)cc2F)=N[C@H]1c1ccc(F)cc1Cl [Bay 41-4109]	demonstrated in vivo efficacy with HBV DNA reduction	–	–	–	–	–	–
CCOC(=O)C1=C(CN2[C@@H]3COC[C@H]2C[C@H](CC(=O)O)C3)NC(c2nccs2)=N[C@H]1c1ccc(F)c(F)c1Cl [Example 69, Exo-2-[(1S,5R)-9-[[(4R)-4-(2-chloro-3,4-difluoro-phenyl)-5-ethoxycarbonyl-2-thiazol-2-yl-1,4-dihydropyrimidin-6-yl]methyl]-3-oxa-9-azabicyclo[3.3.1]nonan-7-yl]acetic acid]	–	8.51	> 100 µM	>32258	2.4 mL/min/kg	203 µg/mL (≈ 349 µM)	21%
COC(=O)C1=C(CN2[C@@H]3COC[C@H]2C[C@H](CC(=O)O)C3)NC(c2nccs2)=N[C@H]1c1ccc(F)c(F)c1Cl [Example 73, Exo-2-[(1S,5R)-9-[[(4R)-4-(2-chloro-3,4-difluoro-phenyl)-5-methoxycarbonyl-2-thiazol-2-yl-1,4-dihydropyrimidin-6-yl]methyl]-3-oxa-9-azabicyclo[3.3.1]nonan-7-yl]acetic acid]	–	8.52	72 µM	24083	3.6 mL/min/kg	> 654 µg/mL	21%
CCOC(=O)C1=C(CN2[C@@H]3COC[C@H]2C[C@H](CC(=O)O)C3)NC(c2nccs2)=N[C@H]1c1ccc(F)c(F)c1Br [Example 80, Exo-2-[(1S,5R)-9-[[(4R)-4-(2-bromo-3,4-difluoro-phenyl)-5-ethoxycarbonyl-2-thiazol-2-yl-1,4-dihydropyrimidin-6-yl]methyl]-3-oxa-9-azabicyclo[3.3.1]nonan-7-yl]acetic acid]	–	8.77	38 µM	22394	4.6 mL/min/kg	221 µg/mL (≈ 353 µM)	35%
COC(=O)C1=C(CN2[C@@H]3C[C@H](CC(=O)O)C[C@H]2C(F)(F)C3)NC(c2nccs2)=N[C@H]1c1cccc(F)c1Cl [Example 88, 2-[(1R,3S,5S)-8-[[(4R)-4-(2-chloro-3-fluoro-phenyl)-5-methoxycarbonyl-2-thiazol-2-yl-1,4-dihydropyrimidin-6-yl]methyl]-6,6-difluoro-8-azabicyclo[3.2.1]octan-3-yl]acetic acid]	–	8.89	52 µM	39662	0.2 mL/min/kg	120 µg/mL (≈ 211 µM)	39%
COC(=O)C1=C(CN2C3COCC2C(F)(F)[C@H](CC(=O)O)C3)NC(c2nccs2)=N[C@H]1c1ccc(F)cc1Cl (stereo partly drawn) [Example 126, 2-[(7S)-9-[[(4R)-4-(2-chloro-4-fluoro-phenyl)-5-methoxycarbonyl-2-thiazol-2-yl-1,4-dihydropyrimidin-6-yl]methyl]-6,6-difluoro-3-oxa-9-azabicyclo[3.3.1]nonan-7-yl]acetic acid]	–	7.99	> 100 µM	>9709	0 mL/min/kg	> 605 µg/mL	17%
COC(=O)C1=C(CN2C3COCC2CC(CC(=O)O)C3)NC(c2nccs2)=N[C@H]1c1ccc(F)c(F)c1Cl (stereo partly drawn) [Example 135, Endo-2-[9-[[(4R)-4-(2-chloro-3,4-difluoro-phenyl)-5-methoxycarbonyl-2-thiazol-2-yl-1,4-dihydropyrimidin-6-yl]methyl]-3-oxa-9-azabicyclo[3.3.1]nonan-7-yl]acetic acid]	–	8.19	> 100 µM	>15385	4.2 mL/min/kg	533 µg/mL (≈ 940 µM)	27%
